test system: HBV; experiment: HBV inhibition in HepAD38 cells, extracellular HBV DNA by direct qPCR; format: cell-based, hepatitis B virus; conditions: Hepatitis B virus; 0.1 μM, HepAD38, 96 hours; read-out: HBV inhibition % (conc μM)
Text: HepAD38 cell line (Ladner et al., Antimicrob Agents Chemother, 1997, 41, 1715-20) was used for HBV inhibition assays. HepAD38 is a subclone, derived from hepatoblastoma cell line HepG2 (ATCC® Number: HB-8065™), that expresses HBV genome under the transcriptional control of a tetracycline-responsive promoter in a TET-OFF system: addition of tetracycline (TET) or doxycycline suppresses HBV replication, while its removal switches on the process allowing HBV viral particles release in the cell supernatant. HepAD38 cell line is maintained in DMEM/F12, supplemented with 10% of fetal bovine serum, 1% of glutamine, 1% of penicillin/streptomycin, 0.4 mg/ml G418 and 0.3 ug/ml tetracycline. For the HBV inhibition assay, doxycycline-free medium is used in order to allow virion production.
HBV inhibition activity in vitro was performed in 96 multiwell plates. During the initial (primary) screening compounds were first tested in triplicates at concentrations of 0.1 μM, 0.5 μM and 1 μM. For selected compounds, an 8-point dose-response curve was obtained using 1:2 serial dilutions (starting from 2.5 μM, 1.25 μM or 0.4 μM, depending on the degree of inhibition observed during the primary screening). From the dose-response curves, half maximal effective concentration (EC50) could be calculated (see also below).
In more detail, compounds—typically dissolved in DMSO stock solutions—were diluted to 2× the final desired concentration in 100 μl of the above medium (without doxycycline) and plated in three replicates in the 96-well plates.
Simultaneously, HepAD38 cells—extensively pre-washed in tetracycline-free medium in order to induce HBV production—were suspended at 2*10^4 cells in 100 μl of tetracycline-free medium and added to each well of the plate, to yield a final assay volume of 200 μl.
DMSO, used for stock solutions and compounds dilutions, is always present in the assays at a final concentration of 0.5%.
Plates were then incubated 96 hours at 37° C. and then subjected to cell viability assays and extracellular HBV quantification, in order to evaluate both the cytotoxic potential and the anti-viral activity of compounds.
Cytotoxicity was assessed by a commercial fluorescence assay that measures the metabolic activity of cells, directly related to cell viability (Cell Titer Blue, Promega). For each compound, cytotoxicity was evaluated at the same concentration employed to evaluate its anti-HBV activity. Anti-HBV activity was evaluated by quantification of extracellular HBV DNA with direct qPCR. In particular, supernatant was collected and centrifuged for cell debris clarification, viral DNA was extracted from virions by addition of lysis buffer (1 mM 1,4-dithiothreitol, 0.2% sodium dodecyl sulphate) and incubated at 95° C. for 10 min. Samples were then diluted 1:40 and real time PCR amplification was performed with SYBR green assay (Power SYBR™ Green PCR Master Mix-Thermo Fisher Scientific) and specific HBV primer (HBV-DF:5′-[…]-3′ (SEQ ID No. 1), HBV-DR:5′-[…]-3′ (SEQ ID No. 2)).
All HBV inhibition or antiviral activity data are typically reported in percent (%) relative to a non-treated reference sample. Excel and Graphpad Prism programs are typically used for data elaboration and EC50 calculation.

SMILES	inhibition at 0.1 µM
Cc1cc(N)c(S(N)(=O)=O)cc1C(=O)Nc1cc(F)c(F)c(Cl)c1 [Example E65, 4-amino-N-(3-chloro-4,5-difluorophenyl)-2-methyl-5-sulfamoylbenzamide]	> 50%
Cc1cc(N)c(S(=O)(=O)N[C@H](C)C(F)(F)F)cc1C(=O)Nc1cc(F)c(F)c(F)c1 [Example E63, (R)-4-amino-2-methyl-N-(3,4,5-trifluorophenyl)-5-(N-(1,1,1-trifluoropropan-2-yl)sulfamoyl)benzamide]	> 50%

same assay, conditions: Hepatitis B virus; 0.5 μM, HepAD38, 96 hours; read-out: HBV inhibition % (conc μM)

SMILES	inhibition at 0.5 µM
Nc1ccc(C(=O)Nc2cc(F)c(F)c(F)c2)cc1S(=O)(=O)NCC1(O)CCCCC1 [Example E39, 4-amino-3-(N-((1-hydroxycyclohexyl)methyl)sulfamoyl)-N-(3,4,5-trifluorophenyl)benzamide]	> 50%
Nc1ccc(C(=O)Nc2cc(F)c(F)c(F)c2)cc1S(=O)(=O)NC1(CO)COC1 [Example E38, 4-amino-3-(N-(3-(hydroxymethyl)oxetan-3-yl)sulfamoyl)-N-(3,4,5-trifluorophenyl)benzamide]	> 50%
Nc1ccc(C(=O)Nc2cc(F)c(F)c(F)c2)cc1S(=O)(=O)NC(CO)CO [Example E48, 4-amino-3-(N-(1,3-dihydroxypropan-2-yl)sulfamoyl)-N-(3,4,5-trifluorophenyl)benzamide]	< 50%
CC(NS(=O)(=O)c1cc(C(=O)Nc2cc(F)c(F)c(F)c2)ccc1N)c1ccccn1 (stereo not drawn) [Example E42, 4-amino-3-(N-(1-(pyridin-2-yl)ethyl)sulfamoyl)-N-(3,4,5-trifluorophenyl)benzamide]	< 50%
Nc1ccc(C(=O)Nc2ccc(F)c(C(F)F)c2)cc1S(N)(=O)=O [Example E9, 4-amino-N-(3-(difluoromethyl)-4-fluorophenyl)-3-sulfamoylbenzamide]	> 50%
Nc1ccc(C(=O)Nc2cc(F)c(F)c(F)c2)cc1S(=O)(=O)N[C@@H]1CC[C@@H](O)C1 (stereo in doubt) [Example E26, 4-amino-3-(N-((1R,3R)-3-hydroxycyclopentyl)sulfamoyl)-N-(3,4,5-trifluorophenyl)benzamide]	> 50%
Nc1ccc(S(N)(=O)=O)cc1C(=O)Nc1cc(F)c(F)c(F)c1 [Example E59, 2-amino-5-sulfamoyl-N-(3,4,5-trifluorophenyl)benzamide]	< 50%
Nc1ccc(C(=O)Nc2cc(F)c(F)c(F)c2)cc1S(=O)(=O)N[C@H]1C[C@@H](O)C1 [Example E24]	> 50%
Nc1ccc(C(=O)Nc2ccc(F)c(C(F)(F)F)c2)cc1S(N)(=O)=O [Example E7, 4-amino-N-(4-fluoro-3-(trifluoromethyl)phenyl)-3-sulfamoylbenzamide]	> 50%
Cc1cc(NC(=O)c2ccc(N)c(S(N)(=O)=O)c2)ccc1F [Example E12, 4-amino-N-(4-fluoro-3-methylphenyl)-3-sulfamoylbenzamide]	> 50%
Nc1ncc(C(=O)Nc2cc(F)c(F)c(F)c2)cc1S(N)(=O)=O [Example E37, 6-amino-5-sulfamoyl-N-(3,4,5-trifluorophenyl)nicotinamide]	< 50%
CC(C)(C)OC(=O)N1CCC(NS(=O)(=O)c2cc(C(=O)Nc3cc(F)c(F)c(F)c3)ccc2N)CC1 [Example E27, tert-butyl 4-((2-amino-5-((3,4,5-trifluorophenyl)carbamoyl)phenyl)sulfonamido)piperidine-1-carboxylate]	< 50%
Cc1cc(N)c(S(N)(=O)=O)cc1C(=O)Nc1ccc(Cl)nc1 [Example E66, 4-amino-N-(6-chloropyridin-3-yl)-2-methyl-5-sulfamoylbenzamide]	< 50%
C[C@@H](NS(=O)(=O)c1cc(C(=O)Nc2cc(F)c(F)c(F)c2)ccc1N)C(F)(F)F [Example E18, (R)-4-amino-N-(3,4,5-trifluorophenyl)-3-(N-(1,1,1-trifluoropropan-2-yl)sulfamoyl)benzamide]	> 50%
Nc1ccc(C(=O)Nc2cc(F)c(F)c(F)c2)cc1S(=O)(=O)N1CCC(O)(CO)CC1 [Example E50, 4-amino-3-((4-hydroxy-4-(hydroxymethyl)piperidin-1-yl)sulfonyl)-N-(3,4,5-trifluorophenyl)benzamide]	> 50%
Nc1ccc(C(=O)Nc2ccc(F)cc2Cl)cc1S(N)(=O)=O [Example E16, 4-amino-N-(2-chloro-4-fluorophenyl)-3-sulfamoylbenzamide]	< 50%
Nc1ccc(C(=O)Nc2cc(F)c(F)c(F)c2)cc1S(=O)(=O)NCC(O)CO (stereo not drawn) [Example E56, 4-amino-3-(N-(2,3-dihydroxypropyl)sulfamoyl)-N-(3,4,5-trifluorophenyl)benzamide]	> 50%
Nc1ccc(C(=O)Nc2ccc(F)c(Cl)c2)cc1S(=O)(=O)N1CCC(O)CC1 [Example E54, 4-amino-N-(3-chloro-4-fluorophenyl)-3-((4-hydroxypiperidin-1-yl)sulfonyl)benzamide]	> 50%
Nc1ccc(C(=O)Nc2cc(F)c(F)cc2F)cc1S(N)(=O)=O [Example E15, 4-amino-3-sulfamoyl-N-(2,4,5-trifluorophenyl)benzamide]	< 50%
Nc1ccc(C(=O)Nc2cc(F)c(F)c(F)c2)cc1S(=O)(=O)N[C@@H]1CC[C@H](O)C1 [Example E49, 4-amino-3-(N-((1R,3S)-3-hydroxycyclopentyl)sulfamoyl)-N-(3,4,5-trifluorophenyl)benzamide]	> 50%
C[C@H](NS(=O)(=O)c1cc(C(=O)Nc2cc(F)c(F)c(F)c2)ccc1N)C(F)(F)F [Example E19, (S)-4-amino-N-(3,4,5-trifluorophenyl)-3-(N-(1,1,1-trifluoropropan-2-yl)sulfamoyl)benzamide]	> 50%
Nc1ccc(C(=O)Nc2cc(F)c(F)c(F)c2)cc1S(=O)(=O)N[C@H]1C[C@H](O)C1 [Example E25]	> 50%
Nc1ccc(C(=O)Nc2ccc(F)c(Cl)c2)cc1S(N)(=O)=O [Example E10, 4-amino-N-(3-chloro-4-fluorophenyl)-3-sulfamoylbenzamide]	> 50%

same assay, conditions: Hepatitis B virus; 1 μM, HepAD38, 96 hours; read-out: HBV inhibition % (conc μM)

SMILES	inhibition at 1 µM
CNc1ccc(C(=O)Nc2cc(F)c(F)c(F)c2)cc1S(N)(=O)=O [Example E1, 4-(methylamino)-3-sulfamoyl-N-(3,4,5-trifluorophenyl)benzamide]	< 50%
CNS(=O)(=O)c1cc(C(=O)Nc2cc(F)c(F)c(F)c2)ccc1N [Example E2, 4-amino-3-(N-methylsulfamoyl)-N-(3,4,5-trifluorophenyl)benzamide]	> 50%
CC(C)(C)OC(=O)N[C@@H]1CCC[C@@H]1NS(=O)(=O)c1cc(C(=O)Nc2cc(F)c(F)c(F)c2)ccc1N [Example E51, tert-butyl ((1R,2S)-2-((2-amino-5-((3,4,5-trifluorophenyl)carbamoyl)phenyl)sulfonamido)cyclopentyl)carbamate]	> 50%

same assay, conditions: Hepatitis B virus; HepAD38, 8-point dose-response; read-out: HBV inh EC50

SMILES	EC50
Nc1cc(Cl)c(C(=O)Nc2cc(F)c(F)c(F)c2)cc1S(N)(=O)=O [Example E5, 4-amino-2-chloro-5-sulfamoyl-N-(3,4,5-trifluorophenyl)benzamide]	< 1000 nM
Nc1ccc(C(=O)Nc2cc(F)c(F)c(F)c2)cc1S(=O)(=O)N[C@H]1CC[C@H](O)CC1 [Example E21, trans-4-amino-3-(N-(4-hydroxycyclohexyl)sulfamoyl)-N-(3,4,5-trifluorophenyl)benzamide]	< 1000 nM

— patent US20210276967A1 (OSPEDALE SAN RAFFAELE S.R.L., priority 2018, published 2021)
